Counter-ions that a name gives are not always drawn.
Assays:
Abl kinase = Abl kinase (Homo sapiens, UniProt P00519); test: biochemical; settings: Abl IC50 (nM), Abl kinase (Invitrogen, 20 ng/well), Abltide 100 μM, ATP 500 nM, 37° C. for 60 minutes, top concentration 10 uM
Procedure: Kinase activity was assessed using luminescent detection (KinaseGlo, Promega) of residual ATP concentration in reaction mixtures containing optimized levels of kinase, substrate, ATP, compound and appropriate buffers. Kinase, substrate and ATP concentrations were determined per the supplier's recommendations. Briefly, this involved running concentration curves to select for optimal signal.
The reaction mixture (50 ul/well) consisted of Abl kinase (Invitrogen, 20 ng/well); Abltide peptide substrate (Upstate, 100 μM) and ATP (500 nM). Each compound was evaluated at a top concentration of 10 uM with 1:3 dilution steps, 10 dilution steps total. Compound was diluted into DMSO and transferred to the reaction plate, resulting in a final DMSO concentration of 2%. This amount of DMSO was determined not to interfere with the enzyme. The reaction was conducted at 37° C. for 60 minutes. The degree of inhibition was assessed using IC50 determinations, which were obtained using GraphPad Prism4.

Abl (T315I) = target: T1, Abl (T315I) (Homo sapiens, UniProt P00519, T315I); test: Abl (T315I) Kinase Assay (KinaseGlo luminescent detection of residual ATP); type: biochemical; settings: Abl (T315I) IC50 (nM), Abl (T315I) (Upstate, 17 ng/well), Abltide 100 uM, ATP 500 nM, 60 minutes at 37° C.
T1 construct: purchased Upstate
Procedure: The assay was performed similarly to the Abl kinase assay. Abl (T315I) (Upstate, 17 ng/well); Abltide substrate (100 uM) and ATP (500 nM) comprised the reaction mixture. Compound was similarly diluted, and the reaction plate was incubated for 60 minutes at 37° C.

Compound	IC50 (Abl kinase) [nM]	IC50 (Abl (T315I)) [nM]
Nc1nc2ccc(/C=C/c3cnc(Nc4ccc(S(=O)(=O)CC5CCNCC5)cc4)nc3)cc2s1 [6-(2-{2-[4-(Piperidin-4-ylmethanesulfonyl)-phenylamino]-pyrimidin-5-yl}-vinyl)-benzothiazol-2-ylamine]	169	76
Nc1nc2ccc(/C=C/c3cnc(Nc4ccc(S(=O)(=O)C5CCNCC5)cc4)nc3)cc2[nH]1 [6-[(E)-2-(2-{[4-(piperidin-4-ylsulfonyl)phenyl]amino}pyrimidin-5-yl)vinyl]-1H-benzimidazol-2-amine]	192	169
O=S(=O)(c1ccc(Nc2ncc(/C=C/c3cccc4[nH]ncc34)cn2)cc1)N(CCO)C1CCNCC1 [N-(2-hydroxyethyl)-4-({5-[(E)-2-(1H-indazol-4-yl)vinyl]pyrimidin-2-yl}amino)-N-piperidin-4-ylbenzenesulfonamide]	77	251
NS(=O)(=O)c1ccc(/C=C/c2cnc(Nc3ccc(S(=O)(=O)N4CCCNCC4)cc3)nc2)cc1 [4-(2-{2-[4-([1,4]Diazepane-1-sulfonyl)-phenylamino]-pyrimidin-5-yl}-vinyl)-benzenesulfonamide]	977	298
O=S(=O)(c1ccc(Nc2ncc(/C=C/c3cccc(-c4ncc[nH]4)c3)cn2)cc1)C1CCNCC1 [5-((E)-3-(1H-imidazol-2-yl)styryl))-N-(4-(piperidin-4-ylsulfonyl)phenyl)pyrimidin-2-amine]	159	2720
O=S(=O)(NCCN1CCCC1)c1ccc(Nc2ncc(/C=C/c3cccc(O)c3)cn2)cc1 [4-{5-[2-(3-Hydroxy-phenyl)-vinyl]-pyrimidin-2-ylamino}-N-(2-pyrrolidin-1-yl-ethyl)-benzenesulfonamide]	7.1	141
Nc1nc2ccc(/C=C/c3cnc(Nc4ccc(S(=O)(=O)C5CCNCC5)cc4)nc3)cc2s1 [6-[(E)-2-(2-{[4-(piperidin-4-ylsulfonyl)phenyl]amino}pyrimidin-5-yl)vinyl]-1,3-benzothiazol-2-amine trifluoroacetic acid salt]	50	58
CN(C1CCNCC1)S(=O)(=O)c1ccc(Nc2ncc(/C=C/c3ccc4nc(N)sc4c3)cn2)cc1 [4-{5-[2-(2-Amino-benzothiazol-6-yl)-vinyl]pyrimidin-2-ylamino}-N-methyl-N-piperidin-4-yl-benzensulfonamide Hydrochloride]	93	45
CN(C)CCN(C1CCNCC1)S(=O)(=O)c1ccc(Nc2ncc(/C=C/c3cccc4[nH]ncc34)cn2)cc1 [N-[2-(dimethylamino)ethyl]-4-({5-[(E)-2-(1H-indazol-4-yl)vinyl]pyrimidin-2-yl}amino)-N-piperidin-4-ylbenzenesulfonamide]	10	113
O=S(=O)(c1ccc(Nc2ncc(/C=C/c3cc(C(F)(F)F)cc4[nH]nnc34)cn2)cc1)C1CCNCC1 [5-((E)-2-(6-(trifluoromethyl)-1H-benzo[d][1,2,3]triazol-4-yl)vinyl)-N-(4-(piperidin-4-ylsulfonyl)phenyl)pyrimidin-2-amine]	130	70

From patent US20070149508A1, “Six membered heteroaromatic inhibitors targeting resistant kinase mutations” (TargeGen, Inc., priority 2005, published 2007)
